Where “and” joins values, the source holds several entries; their conditions need not be identical. Identical values can stand only once.
Test system: 439559-082-T-J2-PDC spheroid viability
Test: Anticancer human tumor 439559-082-T-J2-PDC patient-derived colon adenocarcinoma cell line growth inhibition [POLQ]
Settings: spheroids with HUVEC and MSC; for viability, T/C: stronger effect = lower value
Method: Multicellular complex tumor spheroid response to Polymerase (POL) inhibitors (novobiocin, ART-558, RP6685) in combination with a variety of drugs and investigational agents in selected tumor cell lines
The POL inhibitors (novobiocin, ART-558, and RP6685) were evaluated both individually and in combination with standard of care and investigational anticancer small molecules within a complex spheroid model of solid tumors. . Complex spheroids include a stromal component modeled by human endothelial cells (HUVEC) and fibroblasts modeled by human mesenchymal stem cells (MSCs). The concentration ranges selected for each drug and investigational agent were based upon clinically achievable concentrations if the clinical Cmax of the agent was known.
Compounds. The drugs and investigational agents: novobiocin (NSC847541), ART-558 (NSC835418), RP-6685 (NSC848927), peposertib (NSC802822), ceralasertib (NSC780249), elimusertib (NSC800525), camonsertib (NSC841442), AZD-1390 (NSC803789), olaparib (NSC753686), talazoparib (NSC767125), rucaparib (NSC756644), sotorasib (NSC818433), MRTX-1133 (NSC836407), SN-38 (NSC673596), topotecan (NSC609699), epotoside (NSC141540), doxorubicin (NSC123127), gemcitabine (NSC613327), 5-fluorouracil (NSC19893), paclitaxel (NSC125973), vemurafenib (NSC761431), MSA-2 (NSC828583), SN-011 (NSC837082), adavosertib (NSC754352), prexasertib (NSC758257), carboplatin (NSC241240) and oxaliplatin (NSC266046), were obtained from the National Cancer Institute (NCI) Developmental Therapeutics Program Chemical Repository (21). The FDA-approved anticancer drug set is available from the Developmental Therapeutics Program at https://dtp.cancer.gov/organization/dscb/obtaining/. […] The stock solutions were prepared in dimethyl sulfoxide (DMSO, Sigma-Aldrich, St. Louis, MO, cat. D2650), except for the platinum compounds which were prepared in saline (Quality Biological, Gaithersburg, MD, cat. 114-055-101), at 800-fold the tested concentration and stored at -70 degrees C prior to their use. All drugs and investigational agents were tested over a range starting from a high concentration at or near the clinical Cmax and decreasing in half-log increments. If the clinical Cmax for an agent had not been determined, the highest concentration tested was 10 microM, except for SN-38, which was tested at a high concentration of 1 microM.
Cell Culture. All cells were maintained in an incubator at 37 degrees C and 5% CO2 with 95% humidity. The PDC lines were cultured according to standard operating procedures established by the NCI PDMR (https://pdmr.cancer.gov). Table 3 of the manuscript, lists the cell lines along with the number of the three cell types plated to form the mct-spheroids and media for tumor cell growth. After thawing, all PDC lines, except 997537-175-T-J1-PDC and 415267-285-R-J2-PDC, were cultured in Matrigel-coated flasks prepared with a working solution of 1X Ham's F-12 nutrient mix, without supplementation (Thermo Fisher Scientific, cat. 11765054), 100 U/mL penicillin-streptomycin (Thermo Fisher Scientific, cat. 15140122), and 2.5% Matrigel (Corning Inc., Corning, NY, cat. 354248) for the first three passages. The two PDC lines 997537-175-T-J1-PDC and 415267-285-R-J2-PDC were cultured on uncoated flasks. The 857933-349-R-J2-PDC line was cultured in 6C/Colon 1B media containing advanced DMEM/F-12 (Thermo Fisher Scientific, cat. 12634028), 10 mM HEPES (Thermo Fisher Scientific, cat. 15630080), 1X GlutaMAX supplement (Thermo Fisher Scientific, cat. 35050061), 0.1 mg/mL primocin (InvivoGen, San Diego, CA, cat. ant-pm-2), 10% defined fetal bovine serum, heat inactivated (HyClone Laboratories Inc., Logan, UT, cat. SH30070.03HI), 50% L-WRN conditioned media (ATCC, cat. CRL-3276), 1.25 mM N-Acetyl-L-cysteine (Sigma-Aldrich, cat. A9165), 10 mM nicotinamide (Sigma-Aldrich, cat. N0636), 1X B-27 supplement (Thermo Fisher Scientific, cat. 17504044), 1X N-2 supplement (Thermo Fisher Scientific, cat. […]

[1] = curve of first compound, second compound 0.0316 µM
[2] = curve of first compound, second compound 0.1 µM
[3] = curve of first compound, second compound 0.316 µM
[4] = curve of first compound, second compound 1 µM
[5] = curve of first compound, second compound 3.16 µM
[6] = curve of first compound, second compound 10 µM
[7] = second compound 0.0316 µM, first compound 0.0316 µM
[8] = second compound 0.0316 µM, first compound 0.1 µM
[9] = second compound 0.0316 µM, first compound 0.316 µM
[10] = second compound 0.0316 µM, first compound 1 µM
[11] = second compound 0.0316 µM, first compound 3.16 µM
[12] = second compound 0.0316 µM, first compound 10 µM
[13] = second compound 0.1 µM, first compound 0.0316 µM
[14] = second compound 0.1 µM, first compound 0.1 µM
[15] = second compound 0.1 µM, first compound 0.316 µM
[16] = second compound 0.1 µM, first compound 1 µM
[17] = second compound 0.1 µM, first compound 3.16 µM
[18] = second compound 0.1 µM, first compound 10 µM
[19] = second compound 0.316 µM, first compound 0.0316 µM
[20] = second compound 0.316 µM, first compound 0.1 µM
[21] = second compound 0.316 µM, first compound 0.316 µM
[22] = second compound 0.316 µM, first compound 1 µM
[23] = second compound 0.316 µM, first compound 3.16 µM
[24] = second compound 0.316 µM, first compound 10 µM
[25] = second compound 1 µM, first compound 0.0316 µM
[26] = second compound 1 µM, first compound 0.1 µM
[27] = second compound 1 µM, first compound 0.316 µM
[28] = second compound 1 µM, first compound 1 µM
[29] = second compound 1 µM, first compound 3.16 µM
[30] = second compound 1 µM, first compound 10 µM
[31] = second compound 3.16 µM, first compound 0.0316 µM
[32] = second compound 3.16 µM, first compound 0.1 µM
[33] = second compound 3.16 µM, first compound 0.316 µM
[34] = second compound 3.16 µM, first compound 1 µM
[35] = second compound 3.16 µM, first compound 3.16 µM
[36] = second compound 3.16 µM, first compound 10 µM
[37] = second compound 10 µM, first compound 0.0316 µM
[38] = second compound 10 µM, first compound 0.1 µM
[39] = second compound 10 µM, first compound 0.316 µM
[40] = second compound 10 µM, first compound 1 µM
[41] = second compound 10 µM, first compound 3.16 µM
[42] = second compound 10 µM, first compound 10 µM
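Further: spheroids exposed to compounds for seven days before readout.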
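Wherever viability, T/C is given: 100% = DMSO vehicle control viability.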

C=CCn1c(=O)c2cnc(Nc3ccc(N4CCN(C)CC4)cc3)nc2n1-c1cccc(C(C)(C)O)n1
viability, T/C (compound 0.00316 µM): 97.3% and 99% and 101% | viability, T/C (compound 0.01 µM): 93.6% and 96.3% and 96.2% | viability, T/C (compound 0.0316 µM): 98.5% and 99.2% and 89.3% | viability, T/C (compound 0.1 µM): 97.7% and 104% and 90.1% | viability, T/C (compound 0.316 µM): 99.3% and 97.5% and 91.7% | viability, T/C (compound 1 µM): 81.2% (2×) and 83.4% | IC50 (curve of compound): > 1 µM

O=c1[nH]cc(F)c(=O)[nH]1 + Nc1ccc(C#CCN(C(=O)Cc2ncc(C(F)(F)F)cc2C(F)(F)F)c2ccc(F)cc2)nn1
IC50 [1]: > 10 µM | IC50 [2]: > 10 µM | IC50 [3]: > 10 µM | IC50 [4]: > 10 µM | IC50 [5]: > 10 µM | IC50 [6]: > 10 µM | viability, T/C [7]: 105% | viability, T/C [8]: 112% | viability, T/C [9]: 101% | viability, T/C [10]: 98% | viability, T/C [11]: 90.2% | viability, T/C [12]: 87.5% | viability, T/C [13]: 115% | viability, T/C [14]: 97.4% | viability, T/C [15]: 91.4% | viability, T/C [16]: 92% | viability, T/C [17]: 86.5% | viability, T/C [18]: 82.5% | viability, T/C [19]: 116% | viability, T/C [20]: 104% | viability, T/C [21]: 105% | viability, T/C [22]: 95.9% | viability, T/C [23]: 83.1% | viability, T/C [24]: 85.3% | viability, T/C [25]: 104% | viability, T/C [26]: 94.8% | viability, T/C [27]: 101% | viability, T/C [28]: 81.9% | viability, T/C [29]: 84.5% | viability, T/C [30]: 81.4% | viability, T/C [31]: 103% | viability, T/C [32]: 99.9% | viability, T/C [33]: 84.2% | viability, T/C [34]: 85.5% | viability, T/C [35]: 86.6% | viability, T/C [36]: 80.5% | viability, T/C [37]: 109% | viability, T/C [38]: 91.3% | viability, T/C [39]: 102% | viability, T/C [40]: 83.4% | viability, T/C [41]: 87.9% | viability, T/C [42]: 78.7%

COc1cc2cc(C(=O)CCC(=O)O)sc2cc1OC + Cc1cccc(N(C)C(=O)C2C(O)CCN2c2nc(C)cc(C(F)(F)F)c2C#N)c1
IC50 [1]: > 10 µM | IC50 [2]: > 10 µM | IC50 [3]: > 10 µM | IC50 [4]: > 10 µM | IC50 [5]: > 10 µM | IC50 [6]: > 10 µM | viability, T/C [7]: 104% | viability, T/C [8]: 92.7% | viability, T/C [9]: 95.1% | viability, T/C [10]: 101% | viability, T/C [11]: 100% | viability, T/C [12]: 84.8% | viability, T/C [13]: 107% | viability, T/C [14]: 101% | viability, T/C [15]: 105% | viability, T/C [16]: 99% | viability, T/C [17]: 91.7% | viability, T/C [18]: 94.2% | viability, T/C [19]: 99.5% | viability, T/C [20]: 112% | viability, T/C [21]: 86.7% | viability, T/C [22]: 108% | viability, T/C [23]: 106% | viability, T/C [24]: 95.9% | viability, T/C [25]: 107% | viability, T/C [26]: 107% | viability, T/C [27]: 96.2% | viability, T/C [28]: 96.5% | viability, T/C [29]: 104% | viability, T/C [30]: 88.5% | viability, T/C [31]: 112% | viability, T/C [32]: 97.7% | viability, T/C [33]: 105% | viability, T/C [34]: 87.4% | viability, T/C [35]: 110% | viability, T/C [36]: 94.9% | viability, T/C [37]: 99% | viability, T/C [38]: 107% | viability, T/C [39]: 101% | viability, T/C [40]: 90.9% | viability, T/C [41]: 100% | viability, T/C [42]: 87.3%
